Source: patent US11123340B2, “Small-molecule UT-A-selective urea transport inhibitors” (The Regents of the University of California, priority 2014, dated 2021)

What was measured:
[1] = target: T1, rat UT-B (Rattus norvegicus, UniProt P97689); test: UT-B inhibition, erythrocyte lysis assay; format: cell-based
T1 construct: endogenous in cells; host or cells: rat erythrocytes (whole rat blood)
T1 sequence (P97689 1-384): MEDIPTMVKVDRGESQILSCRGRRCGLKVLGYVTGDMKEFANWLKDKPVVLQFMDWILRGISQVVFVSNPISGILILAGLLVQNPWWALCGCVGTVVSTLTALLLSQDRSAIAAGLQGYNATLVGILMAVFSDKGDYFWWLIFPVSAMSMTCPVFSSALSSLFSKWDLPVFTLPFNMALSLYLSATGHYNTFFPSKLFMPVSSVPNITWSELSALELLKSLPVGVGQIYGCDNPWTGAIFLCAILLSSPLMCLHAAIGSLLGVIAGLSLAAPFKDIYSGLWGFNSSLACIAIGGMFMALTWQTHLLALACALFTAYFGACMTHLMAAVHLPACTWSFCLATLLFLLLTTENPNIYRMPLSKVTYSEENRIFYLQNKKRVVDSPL
Protocol: As described (see, e.g., Levin et al. (2007) FASEB J. 21, 551-563), whole rat blood was diluted to a hematocrit of ˜1.5% in PBS containing 1.25 M acetamide and 5 mM glucose. Erythrocyte suspensions (100 μL) were added to 96-well round-bottom microplates and test compounds (1 μL) were added. After 15 min incubation, 20 μL of the erythrocyte suspension was added rapidly to each well containing 180 μL of PBS. Following vigorous mixing, erythrocyte lysis was quantified by absorbance at 710 nm. Non-lysed controls (isosmolar buffer) and lysed controls (0.7 mM phloretin) were added in each plate as negative and positive controls, respectively. Percentage erythrocyte lysis was computed as: % lysis=100% (Aneg−Atest)/(Aneg−Apos), where A is absorbance at 710 nm.
Inhibitor selectivity for rat UT-A1 versus UT-B was investigated using an erythrocyte lysis assay of rat UT-B urea transport, which involved measurement of hypotonic lysis (by near-infrared absorbance) of acetamide-loaded erythrocytes following rapid dilution into acetamide-free buffer.

[2] = target: T2, rat UT-A1 (Rattus norvegicus, UniProt Q62668); test: In vitro functional studies of UT-A1 inhibition (reversibility, urea competition, kinetics); format: cell-based; conditions: for Mechanism of inhibition of urea transport: urea concentration-dependence of apparent IC50
T2 construct: expressed in transfected cells; host or cells: MDCK cells stably co-expressing rat UT-A1, human AQP1 and YFP-H148Q/V163S
T2 sequence (Q62668 1-929): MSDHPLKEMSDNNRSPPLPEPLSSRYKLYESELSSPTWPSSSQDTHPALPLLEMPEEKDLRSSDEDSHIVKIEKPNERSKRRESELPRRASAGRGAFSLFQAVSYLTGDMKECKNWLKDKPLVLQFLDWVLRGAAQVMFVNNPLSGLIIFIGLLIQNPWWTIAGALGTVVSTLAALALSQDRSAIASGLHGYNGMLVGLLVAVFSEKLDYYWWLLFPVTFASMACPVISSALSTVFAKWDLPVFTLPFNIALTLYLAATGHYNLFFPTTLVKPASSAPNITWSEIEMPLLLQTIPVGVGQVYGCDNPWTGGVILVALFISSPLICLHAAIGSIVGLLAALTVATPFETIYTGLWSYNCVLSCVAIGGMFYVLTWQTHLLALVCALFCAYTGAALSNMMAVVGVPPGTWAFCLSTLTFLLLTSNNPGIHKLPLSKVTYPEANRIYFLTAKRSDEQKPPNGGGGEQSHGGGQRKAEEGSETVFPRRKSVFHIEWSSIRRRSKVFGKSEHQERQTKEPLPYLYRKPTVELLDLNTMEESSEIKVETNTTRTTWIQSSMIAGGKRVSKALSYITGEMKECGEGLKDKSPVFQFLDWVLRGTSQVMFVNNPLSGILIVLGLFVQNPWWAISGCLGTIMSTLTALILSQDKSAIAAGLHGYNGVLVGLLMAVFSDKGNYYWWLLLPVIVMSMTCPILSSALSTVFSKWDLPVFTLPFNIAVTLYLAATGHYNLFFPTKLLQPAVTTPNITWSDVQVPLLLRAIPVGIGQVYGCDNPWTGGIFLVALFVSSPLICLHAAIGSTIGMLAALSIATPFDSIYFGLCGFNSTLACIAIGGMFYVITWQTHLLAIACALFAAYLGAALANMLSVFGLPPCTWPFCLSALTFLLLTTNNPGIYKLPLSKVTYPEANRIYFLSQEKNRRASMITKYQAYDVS
Protocol: Reversibility of UT-A1 inhibition was tested by pre-incubating MDCK cells expressing rat UT-A1, YFP-H148Q/V163S and AQP1 with inhibitors for 15 min (at 3 μM) and then washing the cells with PBS prior to assay. The urea concentration-dependence of UT-A1 inhibition was studied from inhibitor concentration-response data using different of urea gradients at zero initial intracellular urea concentration, or after preincubation of cells with different concentrations of urea for 10 min prior to a 1,600 mM urea gradient. The kinetics of UT-A1 inhibition was measured by adding inhibitors (3 μM) at different time points (0 to 10 min) prior to assay.
Inhibitor reversibility was studied by incubation of the UT-A1-expressing cells with compounds for 15 min and washing, followed by assay of UT-A1 inhibition. UT-A1 urea transport after inhibitor washout was the same as before inhibitor addition for all compounds (FIG. 3A), indicating full reversibility. Inhibitor competition with urea, as might occur by steric hindrance if the inhibitor and urea occupied physically overlapping sites on the UT-A1 protein, was studied from the urea concentration-dependence of apparent inhibitor IC50. Studies were done with zero urea inside cells initially and different urea concentrations outside, and with different urea concentrations inside cells initially and the same inward urea gradient.
To further evaluate the potential site of inhibitor action, the kinetics of UT-A1 inhibition was measured by assay of UT-A1 inhibition at different times after compound addition. […] To assess inhibitor membrane permeability transport of UTAinh-E02 and UTAinh-F11 across MDCK monolayers grown on porous filters by LC/MS was measured. Transport of UTAinh-F11 was much faster than that of UTAinh-E02 (FIG. 3C, right lower panel), with computed transepithelial permeability coefficients of […] and 1.1×10^−5 cm/s, respectively. […]

SMILES | selectivity for UT-A1 versus UT-B ([1]; rat UT-A1 versus rat UT-B) | Kinetics of UT-A1 inhibition ([2]; 3 μM inhibitor, different times after addition) | Mechanism of inhibition of urea transport [2] | IC50 ([1]; rat erythrocytes)
CC(=O)Nc1ccc(-c2csc(-c3c[nH]c4ccccc34)n2)cc1 [UTA1inh-E02, N-(4-(2-(1H-indol-3-yl)thiazol-4-yl)phenyl)acetamide] | high selectivity | occurred over minutes | non-competitive | –
COc1ccc(C)cc1S(=O)(=O)Nc1ccc(Cl)c(N2CCCS2(=O)=O)c1 [UTA1inh-F11, N-[4-Chloro-3-(1,1-dioxido-1,2-thiazolidin-2-yl)phenyl]-2-methoxy-5-methylbenzene-sulfonamide] | – | – | non-competitive | 10 µM
